pIC50: −log10 of the molar value. Structures can show the parent of a compound that is named as a salt.
Target: T1, Inward rectifier potassium channel 2 (Mus musculus, UniProt P35561)
T1 sequence (P35561 whole entry): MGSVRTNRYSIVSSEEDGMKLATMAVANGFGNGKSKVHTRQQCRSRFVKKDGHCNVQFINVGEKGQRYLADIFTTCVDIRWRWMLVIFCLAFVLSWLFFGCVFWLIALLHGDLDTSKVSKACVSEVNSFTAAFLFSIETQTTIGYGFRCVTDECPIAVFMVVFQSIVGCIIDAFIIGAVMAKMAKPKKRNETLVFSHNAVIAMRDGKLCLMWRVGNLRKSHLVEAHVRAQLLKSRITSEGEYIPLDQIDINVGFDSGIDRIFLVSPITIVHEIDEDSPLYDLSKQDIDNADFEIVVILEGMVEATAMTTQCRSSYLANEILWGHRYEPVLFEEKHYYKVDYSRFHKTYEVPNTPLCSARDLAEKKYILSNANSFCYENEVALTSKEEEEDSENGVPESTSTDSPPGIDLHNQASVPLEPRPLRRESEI
Experiment: Kir2.1 inward rectifier channel blockers, dose response, mouse Kir2.1 (AID 2594)

Structure (SMILES) | pIC50
COc1ccc(CNCc2cccc3ccccc23)cc1 | 4.57
CC(NS(=O)(=O)c1ccc(Br)s1)c1ccccc1 (stereo not given) | 4.70
Cc1ccc(OCC(O)CNCc2ccc(F)cc2)cc1 (stereo not given) [1-[(4-fluorophenyl)methylamino]-3-(4-methylphenoxy)propan-2-ol] | 4.61
Cc1ccc(Nc2cc(C)nc3c(C)cccc23)cc1 [2,8-dimethyl-N-(4-methylphenyl)quinolin-4-amine] | 4.37
Fc1ccc(N2CCN(Cc3c[nH]c4ccccc34)CC2)cc1 [3-[[4-(4-fluorophenyl)piperazin-1-yl]methyl]-1H-indole] | 4.51
CCn1c(COc2ccccc2)nnc1SCc1ccc(C#N)cc1 [4-[[4-ethyl-5-(phenoxymethyl)-1,2,4-triazol-3-yl]sulfanylmethyl]benzonitrile] | 4.32
Cc1ccc(O)c(CNCCNCc2cc(C)ccc2O)c1 [4-methyl-2-[[2-[(5-methyl-2-oxidanyl-phenyl)methylamino]ethylamino]methyl]phenol] | 4.67
COc1ccc(CNC/C=C/c2ccccc2)cc1 [(E)-N-[(4-methoxyphenyl)methyl]-3-phenyl-prop-2-en-1-amine;hydrochloride] | 4.65
Cc1ccc2[nH]c(NCc3ccccc3)nc2c1 [MLS000081058] | 4.48
c1ccc(COc2ccc(OCCCNC3CCCC3)cc2)cc1 [MLS000535503] | 4.47
CC(C)(C)OC(=O)NCCc1nnc(SCc2ccc(Cl)cc2)o1 [MLS000557943] | 4.80
CSc1ccc(S(=O)(=O)NC(C)c2ccccc2)cc1 (stereo not given) [MLS000693878] | 4.37
CCCN1CCC(NC23CC4CC(CC(C4)C2)C3)CC1 [N-(1-adamantyl)-1-propyl-4-piperidinamine] | 4.27
Clc1ccc(CNC2CCN(Cc3ccccc3)CC2)cc1 [N-[(4-chlorophenyl)methyl]-1-(phenylmethyl)-4-piperidinamine] | 4.42
COc1ccc(Nc2ccnc3ccccc23)cc1 [SMR000033695] | 4.47
CCn1c(Sc2ccc(N)cc2Cl)nc2ccccc21 [SMR000078102] | 4.45
O=S(=O)(c1ccc(F)cc1)N1CCCc2ccccc21 [SMR000514216] | 4.23
CC(NS(=O)(=O)c1ccc(Br)cc1)c1ccccc1 (stereo not given) [SMR000516693] | 4.59
COc1ccc(CNCCc2ccc3c(c2)OCO3)cc1Br [SMR000555601] | 4.46
CC(O)CNCCCOc1cccc(Oc2ccccc2)c1 (stereo not given) [oxalic acid;1-[3-(3-phenoxyphenoxy)propylamino]-2-propanol] | 4.63
